We go through 1 compound from ChEMBL document CHEMBL1148776, “Structure-based optimization of protein tyrosine phosphatase 1B inhibitors: from the active site to the second phosphotyrosine binding site” (J Med Chem, 2007).

For one data set, the target named is Cytochrome P450 2C9 (Homo sapiens, UniProt P11712). In words: Inhibition of CYP2C9. The format is ADME.
Data set [1] can be described thus: Drug level in C57/B6 mouse muscle at 10 mg/kg, ip after 1 hr. The format is ADME, organism-based, Muscle tissue. More on the design: dose 10 mg/kg, route intraperitoneal. Particulars: read-out: Drug uptake.
Another data set addresses T1, Cytochrome P450 1A2 (Homo sapiens, UniProt P05177).
T1 sequence (P05177 whole entry): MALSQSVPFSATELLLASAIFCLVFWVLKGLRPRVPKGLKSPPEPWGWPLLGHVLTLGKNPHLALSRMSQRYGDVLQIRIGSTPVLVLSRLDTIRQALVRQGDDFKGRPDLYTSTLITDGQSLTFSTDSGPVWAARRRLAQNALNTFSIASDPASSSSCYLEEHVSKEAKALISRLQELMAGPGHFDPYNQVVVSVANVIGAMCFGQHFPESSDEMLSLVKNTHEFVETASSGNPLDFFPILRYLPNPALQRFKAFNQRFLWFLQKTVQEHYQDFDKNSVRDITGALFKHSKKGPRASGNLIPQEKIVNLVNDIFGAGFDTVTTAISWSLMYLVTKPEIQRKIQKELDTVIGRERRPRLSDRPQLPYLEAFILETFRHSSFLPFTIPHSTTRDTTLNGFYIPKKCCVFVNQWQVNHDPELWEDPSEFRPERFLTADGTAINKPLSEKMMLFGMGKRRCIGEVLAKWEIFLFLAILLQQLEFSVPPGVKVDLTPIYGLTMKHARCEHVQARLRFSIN
In words: Inhibition of CYP1A2. The format is ADME.

The next data set deals with Cytochrome P450 2D6 (Homo sapiens, UniProt P10635). In words: Inhibition of CYP2D6. The data set is classed as ADME.
Chain of Cytochrome P450 2D6 (P10635 whole entry): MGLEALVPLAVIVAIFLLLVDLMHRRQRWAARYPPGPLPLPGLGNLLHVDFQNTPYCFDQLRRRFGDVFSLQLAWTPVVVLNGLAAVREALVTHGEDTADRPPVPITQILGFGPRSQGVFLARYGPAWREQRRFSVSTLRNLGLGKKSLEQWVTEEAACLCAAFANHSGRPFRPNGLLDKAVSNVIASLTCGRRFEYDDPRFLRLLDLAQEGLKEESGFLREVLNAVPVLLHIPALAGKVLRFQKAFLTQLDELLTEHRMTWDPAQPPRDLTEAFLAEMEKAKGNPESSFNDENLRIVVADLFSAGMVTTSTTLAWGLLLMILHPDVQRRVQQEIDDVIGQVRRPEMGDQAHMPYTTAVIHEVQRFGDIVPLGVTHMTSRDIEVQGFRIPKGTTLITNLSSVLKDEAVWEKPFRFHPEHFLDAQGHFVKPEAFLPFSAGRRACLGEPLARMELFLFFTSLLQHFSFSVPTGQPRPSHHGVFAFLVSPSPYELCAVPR
Data set [2] has as its target T2, Receptor-type tyrosine-protein phosphatase C (Homo sapiens, UniProt P08575).
T2 sequence (P08575 whole entry): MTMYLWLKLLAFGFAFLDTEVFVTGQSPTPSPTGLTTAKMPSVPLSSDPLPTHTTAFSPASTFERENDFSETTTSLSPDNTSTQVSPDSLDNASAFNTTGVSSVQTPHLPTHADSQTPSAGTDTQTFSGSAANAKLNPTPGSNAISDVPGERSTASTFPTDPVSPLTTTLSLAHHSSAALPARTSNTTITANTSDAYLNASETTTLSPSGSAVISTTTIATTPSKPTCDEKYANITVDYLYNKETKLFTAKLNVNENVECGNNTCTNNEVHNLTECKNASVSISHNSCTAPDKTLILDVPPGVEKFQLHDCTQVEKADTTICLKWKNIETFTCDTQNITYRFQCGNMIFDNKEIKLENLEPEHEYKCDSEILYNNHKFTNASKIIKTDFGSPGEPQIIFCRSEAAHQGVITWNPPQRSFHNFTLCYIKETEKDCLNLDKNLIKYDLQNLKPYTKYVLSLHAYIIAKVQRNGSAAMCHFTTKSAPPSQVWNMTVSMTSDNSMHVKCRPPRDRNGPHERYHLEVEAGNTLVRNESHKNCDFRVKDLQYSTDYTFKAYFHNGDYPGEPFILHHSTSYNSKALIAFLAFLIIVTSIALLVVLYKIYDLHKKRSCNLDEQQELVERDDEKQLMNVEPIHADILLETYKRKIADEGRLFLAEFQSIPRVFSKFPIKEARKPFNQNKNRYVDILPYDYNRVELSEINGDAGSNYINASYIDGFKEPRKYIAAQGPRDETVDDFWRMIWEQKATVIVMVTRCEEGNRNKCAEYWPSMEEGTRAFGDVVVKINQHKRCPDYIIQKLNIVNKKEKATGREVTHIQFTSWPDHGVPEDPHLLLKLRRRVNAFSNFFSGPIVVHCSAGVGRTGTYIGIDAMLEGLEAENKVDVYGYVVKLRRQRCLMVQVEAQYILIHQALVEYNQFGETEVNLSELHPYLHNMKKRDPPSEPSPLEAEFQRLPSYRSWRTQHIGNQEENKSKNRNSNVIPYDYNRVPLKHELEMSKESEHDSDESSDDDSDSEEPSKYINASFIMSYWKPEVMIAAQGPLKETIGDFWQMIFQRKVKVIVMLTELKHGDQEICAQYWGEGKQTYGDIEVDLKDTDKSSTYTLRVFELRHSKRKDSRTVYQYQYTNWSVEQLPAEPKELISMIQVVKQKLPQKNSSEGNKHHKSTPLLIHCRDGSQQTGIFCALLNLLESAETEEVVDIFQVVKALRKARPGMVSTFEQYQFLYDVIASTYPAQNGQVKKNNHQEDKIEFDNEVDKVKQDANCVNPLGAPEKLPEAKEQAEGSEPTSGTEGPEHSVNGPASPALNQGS
In words: Inhibition of human recombinant CD45.

A further data set concerns the target Cytochrome P450 2C19 (Homo sapiens, UniProt P33261). In words: Inhibition of CYP2C19. The format is ADME.
Data set [3] is described as follows: Permeability coefficient across human Caco-2 cells. The format is ADME, cell-based. Particulars: read-out: permeability.
Data set [4] can be described thus: Drug level in C57/B6 mouse plasma at 10 mg/kg, ip after 7 hrs. The data set is classed as ADME, organism-based. Also on record: dose 10 mg/kg, route intraperitoneal. Conditions: read-out: Drug uptake.
Data set [5] addresses Receptor-type tyrosine-protein phosphatase F (Homo sapiens, UniProt P10586). Nature of the data set: Inhibition of human recombinant LAR.
For a further data set, the system named is Hepatocyte. In words: Decrease in drug uptake in rat hepatocytes in presence of verapamil. More on the design: scale not given: the % may be the effect or the level left. The data set is classed as ADME, cell-based.
A short description of data set [6]: Drug level in C57/B6 mouse muscle at 10 mg/kg, ip after 7 hrs. The data set is classed as ADME, organism-based, Muscle tissue. More on the design: dose 10 mg/kg, route intraperitoneal. Conditions: read-out: Drug uptake.
Data set [7] in a line: Stability in mouse liver microsomes. The data set is classed as ADME, Microsome. (Microsomes from liver hold many membrane-bound enzymes, among them those of drug oxidation.)
In the next data set the target is T3, Cytochrome P450 2C8 (Homo sapiens, UniProt P10632).
T3 sequence (P10632 whole entry): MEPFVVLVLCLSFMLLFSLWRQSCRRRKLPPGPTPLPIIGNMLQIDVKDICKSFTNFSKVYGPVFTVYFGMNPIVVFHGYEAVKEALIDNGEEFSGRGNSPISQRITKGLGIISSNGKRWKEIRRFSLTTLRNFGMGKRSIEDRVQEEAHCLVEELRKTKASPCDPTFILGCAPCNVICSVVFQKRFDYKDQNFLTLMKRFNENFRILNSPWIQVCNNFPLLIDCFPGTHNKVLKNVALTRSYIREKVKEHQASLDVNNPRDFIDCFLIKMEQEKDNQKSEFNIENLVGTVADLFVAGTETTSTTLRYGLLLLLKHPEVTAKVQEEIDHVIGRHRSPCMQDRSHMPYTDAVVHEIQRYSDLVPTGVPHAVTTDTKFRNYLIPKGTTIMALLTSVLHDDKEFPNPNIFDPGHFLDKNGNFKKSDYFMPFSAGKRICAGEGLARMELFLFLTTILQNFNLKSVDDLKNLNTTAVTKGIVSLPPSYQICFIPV
In words: Inhibition of CYP2C8. The format is ADME.

The nature of data set [8]: Aqueous solubility at pH 7.4. The data set is classed as physicochemical.
Data set [9] in a line: Stability in human liver microsomes. The data set is classed as ADME, Microsome.
Another data set deals with Cytochrome P450 3A4 (Homo sapiens, UniProt P08684). Nature of the data set: Inhibition of CYP3A4. The format is ADME.
Chain of Cytochrome P450 3A4 (P08684 whole entry): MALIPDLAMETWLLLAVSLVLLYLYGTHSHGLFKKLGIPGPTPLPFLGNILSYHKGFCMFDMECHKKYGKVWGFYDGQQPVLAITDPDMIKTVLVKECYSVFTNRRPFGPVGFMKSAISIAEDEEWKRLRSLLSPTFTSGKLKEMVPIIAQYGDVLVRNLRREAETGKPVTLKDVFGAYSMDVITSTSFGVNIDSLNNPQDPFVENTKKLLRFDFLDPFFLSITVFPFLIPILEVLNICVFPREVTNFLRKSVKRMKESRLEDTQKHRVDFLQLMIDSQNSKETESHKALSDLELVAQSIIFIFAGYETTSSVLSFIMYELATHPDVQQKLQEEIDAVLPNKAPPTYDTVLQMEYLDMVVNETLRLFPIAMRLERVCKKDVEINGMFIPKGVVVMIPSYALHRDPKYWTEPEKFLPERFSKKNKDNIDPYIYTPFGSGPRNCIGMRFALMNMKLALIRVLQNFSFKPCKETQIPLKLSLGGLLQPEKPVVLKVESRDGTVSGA
In a further data set the target is T4, Cytochrome P450 2A6 (Homo sapiens, UniProt P11509).
T4 sequence (P11509 whole entry): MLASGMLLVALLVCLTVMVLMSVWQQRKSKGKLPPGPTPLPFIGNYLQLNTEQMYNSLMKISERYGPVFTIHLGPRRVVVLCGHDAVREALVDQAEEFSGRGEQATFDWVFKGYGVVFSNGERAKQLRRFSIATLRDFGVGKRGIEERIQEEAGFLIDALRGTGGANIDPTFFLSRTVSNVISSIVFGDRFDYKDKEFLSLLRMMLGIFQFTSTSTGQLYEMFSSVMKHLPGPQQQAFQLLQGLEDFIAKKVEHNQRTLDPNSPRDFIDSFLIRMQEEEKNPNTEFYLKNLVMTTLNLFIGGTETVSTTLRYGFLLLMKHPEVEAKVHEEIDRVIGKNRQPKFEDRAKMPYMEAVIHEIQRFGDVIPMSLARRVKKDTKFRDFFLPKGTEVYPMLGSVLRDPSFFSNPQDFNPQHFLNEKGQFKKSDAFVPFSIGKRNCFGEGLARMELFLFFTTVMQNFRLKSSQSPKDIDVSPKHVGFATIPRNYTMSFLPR
Nature of the data set: Inhibition of CYP2A6. The format is ADME.

Data set [10] can be described thus: Plasma clearance in Sprague-Dawley rat at 2 mg/kg, iv. The data set is classed as ADME, organism-based. Also on record: dose 2 mg/kg, route intravenous.
A short description of data set [11]: Cmax in C57/B6 mouse plasma at 10 mg/kg, ip after 1 hr. The data set is classed as ADME, organism-based. More on the design: dose 10 mg/kg, route intraperitoneal.
Data set [12] is described as follows: Drug level in C57/B6 mouse liver at 10 mg/kg, ip after 7 hrs. The format is ADME, organism-based. More on the design: dose 10 mg/kg, route intraperitoneal. Particulars: read-out: Drug uptake.
Data set [13] in a line: Stability in rat liver microsomes. The format is ADME, Microsome.
Data set [14] can be described thus: Drug level in C57/B6 mouse liver at 10 mg/kg, ip after 1 hr. More on the design: dose 10 mg/kg, route intraperitoneal. Particulars: read-out: Drug uptake. The format is ADME, organism-based.
The nature of data set [15]: Half life in Sprague-Dawley rat at 2 mg/kg, iv. The data set is classed as ADME, organism-based. More on the design: dose 2 mg/kg, route intravenous. Particulars: in vivo.

Chain of Cytochrome P450 2C19 (P33261 whole entry): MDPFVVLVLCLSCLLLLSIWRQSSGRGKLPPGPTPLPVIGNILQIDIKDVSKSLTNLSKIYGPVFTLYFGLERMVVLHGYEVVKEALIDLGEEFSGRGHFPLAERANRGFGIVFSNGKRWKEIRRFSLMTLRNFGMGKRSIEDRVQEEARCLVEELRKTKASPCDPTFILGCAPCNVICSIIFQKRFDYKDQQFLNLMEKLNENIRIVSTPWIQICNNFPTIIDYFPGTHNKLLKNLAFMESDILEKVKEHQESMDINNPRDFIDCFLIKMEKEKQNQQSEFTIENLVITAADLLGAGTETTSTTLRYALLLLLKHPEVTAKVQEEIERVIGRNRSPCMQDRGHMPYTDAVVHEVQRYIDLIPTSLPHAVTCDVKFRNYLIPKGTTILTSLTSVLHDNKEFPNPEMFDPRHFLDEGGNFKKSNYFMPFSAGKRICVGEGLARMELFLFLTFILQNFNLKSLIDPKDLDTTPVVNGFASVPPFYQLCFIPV
Chain of Cytochrome P450 2C9 (P11712 whole entry): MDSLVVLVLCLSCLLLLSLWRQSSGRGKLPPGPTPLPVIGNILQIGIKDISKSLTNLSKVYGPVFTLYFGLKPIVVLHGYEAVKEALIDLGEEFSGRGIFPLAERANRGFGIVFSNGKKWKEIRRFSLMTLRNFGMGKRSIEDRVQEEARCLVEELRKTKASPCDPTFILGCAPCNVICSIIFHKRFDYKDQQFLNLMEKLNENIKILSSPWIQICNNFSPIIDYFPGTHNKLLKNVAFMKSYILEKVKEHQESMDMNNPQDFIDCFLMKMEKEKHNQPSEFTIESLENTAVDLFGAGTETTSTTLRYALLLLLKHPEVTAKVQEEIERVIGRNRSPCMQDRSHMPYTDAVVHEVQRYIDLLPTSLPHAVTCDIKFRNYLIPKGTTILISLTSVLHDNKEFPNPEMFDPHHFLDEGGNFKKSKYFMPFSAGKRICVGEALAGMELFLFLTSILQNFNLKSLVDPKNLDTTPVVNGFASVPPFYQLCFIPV
Chain of Receptor-type tyrosine-protein phosphatase F (P10586 whole entry): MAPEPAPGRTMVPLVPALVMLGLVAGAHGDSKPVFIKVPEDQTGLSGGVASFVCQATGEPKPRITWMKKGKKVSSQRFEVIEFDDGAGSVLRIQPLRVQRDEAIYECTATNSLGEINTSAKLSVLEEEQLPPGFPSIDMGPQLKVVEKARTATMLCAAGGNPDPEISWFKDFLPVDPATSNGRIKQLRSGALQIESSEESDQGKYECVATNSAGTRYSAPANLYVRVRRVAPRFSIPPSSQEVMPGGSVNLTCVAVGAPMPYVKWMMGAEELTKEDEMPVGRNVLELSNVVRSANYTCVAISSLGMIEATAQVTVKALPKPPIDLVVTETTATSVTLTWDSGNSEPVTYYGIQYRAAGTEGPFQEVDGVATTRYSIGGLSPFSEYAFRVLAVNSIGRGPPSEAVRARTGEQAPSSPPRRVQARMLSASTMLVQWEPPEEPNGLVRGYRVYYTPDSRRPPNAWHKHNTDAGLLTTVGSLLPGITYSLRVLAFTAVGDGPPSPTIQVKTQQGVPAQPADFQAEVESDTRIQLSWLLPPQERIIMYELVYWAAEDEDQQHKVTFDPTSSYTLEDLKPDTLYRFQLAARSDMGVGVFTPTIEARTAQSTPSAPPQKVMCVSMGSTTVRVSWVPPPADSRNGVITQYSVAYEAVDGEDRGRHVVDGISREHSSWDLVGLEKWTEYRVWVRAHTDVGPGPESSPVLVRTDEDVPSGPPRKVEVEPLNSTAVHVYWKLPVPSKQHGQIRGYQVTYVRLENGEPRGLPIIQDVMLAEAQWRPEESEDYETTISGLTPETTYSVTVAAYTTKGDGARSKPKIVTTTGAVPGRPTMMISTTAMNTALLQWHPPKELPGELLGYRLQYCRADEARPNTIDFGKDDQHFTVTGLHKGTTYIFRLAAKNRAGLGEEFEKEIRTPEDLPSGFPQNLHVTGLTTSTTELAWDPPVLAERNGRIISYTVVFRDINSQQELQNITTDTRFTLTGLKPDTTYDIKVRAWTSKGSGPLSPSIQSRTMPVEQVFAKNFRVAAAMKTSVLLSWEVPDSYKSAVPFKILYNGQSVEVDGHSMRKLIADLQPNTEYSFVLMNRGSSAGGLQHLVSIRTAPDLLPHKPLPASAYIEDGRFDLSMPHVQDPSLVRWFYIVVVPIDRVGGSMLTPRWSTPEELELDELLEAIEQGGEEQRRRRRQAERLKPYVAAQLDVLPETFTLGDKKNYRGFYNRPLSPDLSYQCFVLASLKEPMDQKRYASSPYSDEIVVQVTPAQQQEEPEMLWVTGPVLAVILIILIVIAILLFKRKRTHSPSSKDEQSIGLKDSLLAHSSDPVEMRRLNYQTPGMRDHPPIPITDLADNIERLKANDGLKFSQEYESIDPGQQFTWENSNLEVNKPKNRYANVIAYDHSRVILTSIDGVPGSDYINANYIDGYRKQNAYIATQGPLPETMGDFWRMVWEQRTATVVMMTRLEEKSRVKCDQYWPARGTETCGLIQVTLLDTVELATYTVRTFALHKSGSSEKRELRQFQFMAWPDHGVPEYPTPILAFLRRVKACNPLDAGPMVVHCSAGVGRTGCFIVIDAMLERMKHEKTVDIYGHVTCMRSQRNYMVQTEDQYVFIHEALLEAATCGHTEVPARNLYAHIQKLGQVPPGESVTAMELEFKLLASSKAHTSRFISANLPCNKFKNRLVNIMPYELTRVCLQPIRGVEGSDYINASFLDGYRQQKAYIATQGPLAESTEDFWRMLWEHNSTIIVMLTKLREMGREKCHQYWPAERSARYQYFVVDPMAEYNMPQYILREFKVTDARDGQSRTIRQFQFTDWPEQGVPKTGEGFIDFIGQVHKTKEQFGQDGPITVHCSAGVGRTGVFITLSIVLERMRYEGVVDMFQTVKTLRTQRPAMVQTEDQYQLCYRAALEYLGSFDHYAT

For orientation: IC50 means the concentration that inhibits the measured activity by half. The Ki is the dissociation constant of the complex between target and ligand, obtained from inhibition or displacement. As a reminder, the half-life is how long it takes for the measured level to halve. A word on the solubility: it is how much of the substance goes into solution per volume. For orientation: clearance means a measure of how efficiently the substance is removed, as volume per time. A word on the Cmax: it is the highest concentration seen after dosing. Consider `O=C(O)COc1c(C(=O)O)sc(-c2cccc(NC3CCN(S(=O)(=O)Cc4ccccc4)CC3)c2)c1Br`, for which the IC50 is 40 µM at Cytochrome P450 2C9; more than 500 µM at Cytochrome P450 1A2; more than 500 µM at Cytochrome P450 2D6; more than 500 µM against Cytochrome P450 2C19; more than 500 µM against Cytochrome P450 2C8; more than 500 µM against Cytochrome P450 3A4. Further, the IC50 on Cytochrome P450 2A6 was more than 500 µM. Moreover, the concentration at 1 h is 3500 nM in data set [1] and 6900 nM in data set [14]. Besides, the Ki was 77 µM in data set [2] and more than 500 µM in data set [5]. Further, the Papp in data set [3] is less than 1 ×10⁻⁶ cm/s. Moreover, the concentration at 7 h stood at 370 nM in [4], 260 nM in data set [6] and 170 nM in data set [12]. In the data set on Hepatocyte, the Activity is recorded as 70%. Moreover, the half-life is more than 1 h in data set [7], more than 1 h in [9], 0.767 h in data set [13] and 10 h in data set [15]. Besides, in data set [8], the solubility is more than 100 µg/mL. In addition, in [10], the clearance came to 7 mL/min/kg. The compound also registered a Cmax in [11] of 15200 nM.
